Assay results reported in patent publication US6579893B1, “Use of troglitazone and related compounds for the treatment of cancer” (Board of Regents, The University of Texas System, priority 1997, dated 2003).

What was measured:
porcine granulosa cells [1] = experiment: Progesterone production by cultured porcine granulosa cells; assay type: cell-based; settings: for suppression of progesterone production, dose-response: serum-free medium, varying concentrations, 24 h (FIG. 1)
Excerpt: FlG. 1. Dose-response of progesterone production suppression in porcine granulosa cells treated with Troglitazone and related thiazolidinedione compounds. […] . […] Progesterone concentrations were corrected for DNA content in treated cells and are presented as a percentage of basal corrected progesterone production.
FIG. 2. Time course of Troglitazone suppression of progesterone production by porcine granulosa cells. […] .
FIG. 4. Effects of 25-OH cholesterol on Troglitazone suppression of porcine granulosa cell progesterone production. […] .
Initial studies investigated the dose-response of Troglitazone and related compounds on progesterone production in cultures of porcine granulosa cells. Porcine granulosa cells were isolated from 1- to 5-mm follicles of ovaries from immature swine (60-70 kg) obtained from a local slaughterhouse (Urban et al. 1994). The cells were plated in Eagle's minimum essential medium and 3% fetal calf serum (FCS) at a concentration of 20-30 million cells 60-mm dish for 12-16 h to facilitate granulosa cell attachment to the plates. Monolayer cultures were maintained at 37° C. in 5% CO2 throughout the study. After granulosa cell attachment, medium containing the FCS was discarded and serum-free medium with varying concentrations of Troglitazone, pioglitazone and BRL 49653 was added for 24 h. One ml of medium was collected for measurement of progesterone by an assay previously described that uses the chromatographic separation of steroids to enhance specificity (Urban et al. 1994). […] . The time course for the suppression of progesterone was done in the same porcine granulosa cell culture system. […] . The suppression of progesterone production in porcine granulosa cells by Troglitazone could be due to effects of the drug on the supply of cholesterol to the mitochondria. Before investigating proteins in the pathway of cholesterol transport to the mitochondria, it was first tested whether Troglitazone would inhibit progesterone production when cells were co-treated with 25-OH cholesterol. This compound diffuses directly to the P-450 cholesterol side-chain cleavage enzyme (P-450scc) in the mitochondria and acts as a substrate for progesterone production (Veldhuis and Furlanetto, 1985). […] .

porcine granulosa cells [2] = experiment: Cell viability of porcine granulosa cells (MTS to formazan); assay type: cell-based; settings: even at the highest doses, 100 μg ml (FIG. 3)
Protocol: FIG. 3. Cell viability porcine granulosa cells during treatment with Troglitazone. Porcine granulosa cells were treated with various concentrations of Troglitazone and cell viability determined using a MTS dye oxidation method. This method is based on the ability of dehydrogenase enzymes found in metabolically active cells to oxidize MTS to formazan. This compound is soluble in tissue culture medium.
Therefore, cell viability was tested in these cells using a colorimetric assay that is dependent on the oxidation of MTS to formazan (absorbance measured at 490 nm ) by dehydrogenase enzymes found in metabolically active cells (Promega, Madison WI). This assay was verified in porcine granulosa cells by showing a linear increase in absorption with increasing cell density.

porcine granulosa cells [3] = experiment: DNA content and total protein of treated porcine granulosa cells; assay type: cell-based
P450scc = experiment: Northern blot of P450scc mRNA in porcine granulosa cells; assay type: cell-based; settings: 5 μg ml, 24 h (FIG. 5)
Excerpt: FIG. 5. Scanned image of Northern blot Troglitazone effects on mRNA concentrations of P450scc.
Suppression of transcription of this enzyme would result in decreased progesterone production by granulosa cells.

[4] = test system: polycystic ovary syndrome; settings: women with PCO, 400 mg every day, cited from earlier work
HGL5 cells [5] = experiment: Cell viability of HGL5 cells (MTT to formazan); settings: HGL5, 4 days, MTT (FIG. 9)
Protocol: Cell viability was assessed by the conversion of MTT to formazan as previously described. Data are the mean ±SEM from 2 studies done in triplicate.
A similar assay was used as described above porcine granulosa cells, using MTT instead of MTS for conversion to formazan.

NWTb3 cells = experiment: Cell viability of NWTb3 cells (MTT to formazan); settings: NWTb3, 4 days, MTT (FIG. 11)
Protocol: FIG. 11. […] Cells were grown in 24 well-plates with high-glucose MEM 10% FCS. Cell viability was assessed by the conversion of MTT to formazan as previously described. Data are the mean ±SEM from 2 studies done in triplicate.

MCF-7 cells = experiment: Cell viability of MCF-7 cells (MTT to formazan); settings: MCF-7 (non-PPARγ expressing), 4 days, MTT (FIG. 13)
Protocol: FIG. 13. […] MCF-7 cells were treated with increasing concentrations of Troglitazone for 4 days and cell viability was assessed by the conversion of MTT to formazan as previously described. Data are the mean ±SEM from 2 studies done in triplicate.
A non-PPARγ expressing human breast cancer cell line, MCF-7 was tested.

HGL5 cells [6] = test system: HGL5 cells
Excerpt: Progesterone was corrected for protein concentration. The data represent the mean ±SEM from 2 studies done in triplicate.

PPARγ [7] = experiment: EMSA of porcine granulosa cell nuclear extract with consensus PPRE (DR-1) oligonucleotide; assay type: cell-based; settings: 15 μg nuclear extract protein, EMSA (FIG. 6)
Excerpt: The nuclear extract was mixed with radioactively-labeled consensus PPRE as described in FIG. 6.

PPARγ [8] = settings: cited from earlier work
PPARα = molecular target: T1, PPARα (Homo sapiens, UniProt Q07869); settings: cited from earlier work
T1 sequence (Q07869 1-468): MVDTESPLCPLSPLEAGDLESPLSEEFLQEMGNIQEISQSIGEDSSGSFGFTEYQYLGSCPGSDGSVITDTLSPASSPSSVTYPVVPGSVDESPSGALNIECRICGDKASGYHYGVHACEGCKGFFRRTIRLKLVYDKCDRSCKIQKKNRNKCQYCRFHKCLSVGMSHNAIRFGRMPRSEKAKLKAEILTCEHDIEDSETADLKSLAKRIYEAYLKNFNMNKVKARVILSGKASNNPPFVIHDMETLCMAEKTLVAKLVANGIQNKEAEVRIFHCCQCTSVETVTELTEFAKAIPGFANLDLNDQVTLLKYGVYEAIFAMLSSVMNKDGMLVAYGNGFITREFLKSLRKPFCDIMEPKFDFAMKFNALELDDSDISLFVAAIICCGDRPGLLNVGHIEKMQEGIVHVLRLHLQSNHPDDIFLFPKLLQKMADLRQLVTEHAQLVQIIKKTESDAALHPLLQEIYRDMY

In the case of `CCc1ccc(CCOc2ccc(CC3SC(=O)NC3=O)cc2)nc1` (centres unmarked) [pioglitazone, 5-[4-[2-(5-ethylpyridin-2-yl)ethoxyl]benzyl]thiazolidine-2,4-dione], the “suppression of progesterone production, dose-response” value (from here on “suppression … dose-response”) (porcine granulosa cells [1]) is reported as “suppressed progesterone production by porcine granulosa cells in a dose-dependent fashion”.
In the case of `Cc1c(C)c2c(c(C)c1O)CCC(C)(COc1ccc(CC3SC(=O)NC3=O)cc1)O2` (single isomer, unassigned; (+)) [Troglitazone, (+)-5[[4-[(3,4-dihydro-6-hydroxy-2,5,7,8-tetramethyl-2H-1-benzopyran-2-yl)methoxy]phenyl]methyl]-2,4thiazolidinedione], the “suppression of progesterone at single concentration” value (porcine granulosa cells [1]; 5 μg ml, 24 h (FIG. 7B)) is reported as “suppression of progesterone in these cells occurred”, the “time at which progesterone production was suppressed” value (porcine granulosa cells [1]; 1 or 10 μg ml, up to 24 h (FIG. 2)) is reported as no less than 4 h and the “effect of concentration on time of onset of suppression” value (porcine granulosa cells [1]; 1 vs 10 μg ml (FIG. 2)) is reported as “did not affect the time of onset of suppression”. The “potency at suppressing progesterone production relative to the other thiazolidinediones” value (porcine granulosa cells [1]; 24 h dose-response (FIG. 1)) was “more potent at suppressing progesterone production than 2 other drugs”, the “progesterone production in the presence of 25-OH cholesterol” value (porcine granulosa cells [1]; co-treatment with 25-OH cholesterol 30 μg ml, Troglitazone 1 and 10 μg ml, 24 h (FIG. 4)) was “suppressed progesterone production” and the “suppression … dose-response” value (porcine granulosa cells [1]) was “suppressed progesterone production by porcine granulosa cells in a dose-dependent fashion”. The cell viability (porcine granulosa cells [2]) was “not a decrease in cell viability”, the “total protein concentrations versus control” value (porcine granulosa cells [3]; Troglitazone treatment groups vs control) was “lower” and the “DNA content versus control” value (porcine granulosa cells [3]; Troglitazone-treated vs control cells) was “not a significant decrease in DNA content”. For the same compound, the “mRNA concentrations of P450scc” value (P450scc) was “did not suppress mRNA concentrations of P450scc”, the “women with ovulatory menses” value ([4]; 25 women studied) was 2 of the 25 and the insulin resistance [4] was “reduced”. The “concentrations causing a loss of cell viability” value (HGL5 cells [5]) was no less than 0.5 µg·mL, the “concentrations causing a loss of cell viability” value (NWTb3 cells) was no less than 1.0 µg/mL and the cell viability (MCF-7 cells) was “decreased only with high concentrations”. The “progesterone production at single concentration” value (HGL5 cells [6]; 30 μg ml) was “inhibited progesterone production”, the “biphasic response at lower concentrations” value (HGL5 cells [6]; HGL5, 48 h (FIG. 8)) was “lower concentrations actually increasing progesterone production” and the “concentrations at which progesterone production was suppressed” value (HGL5 cells [6]; HGL5, 48 h (FIG. 8)) was “greater than 10 μg”.
In the case of `CN(CCOc1ccc(CC2SC(=O)NC2=O)cc1)c1ccccn1` (centres unmarked) [BRL 49653, 5-[4-[2-(N-methyl-N-(2-pyridyl)amino]ethoxy]benzyl]thiazolidine-2,4-dione], the “suppression … dose-response” value (porcine granulosa cells [1]) is reported as “suppressed progesterone production by porcine granulosa cells in a dose-dependent fashion” and the “binding to the PPRE in granulosa cell nuclear extracts” value (PPARγ [7]) is reported as “increased binding to the PPRE”.
For `CCCCC/C=C/C=C1/C(=O)C=C[C@@H]1C/C=C\CCCC(=O)O` [15d-PGJ2, 15-deoxy-delta^12, 14-prostaglandin J2], the PPARγ-dependent adipogenesis (PPARγ [8]) is given as “activates PPARγ-dependent adipogenesis” and the PPARα activation (PPARα) is given as “activated PPARα only at high concentrations”.
